Measurements reported in US20260223850A1, “SUBSTITUTED PYRROLIDONE COMPOUND, PREPARATION METHOD THEREFOR, COMPOSITION AND APPLICATION THEREOF” (QINGDAO KINGAGROOT CHEMICAL COMPOUND CO., LTD., priority 2023, published 2026).

Key:
Assay in all cases: Seedling stage sealing experiment for water-seeding
Format in all cases: in vivo
[1] = tested on: Echinochloa crusgalli; settings: 120 g a.i./ha, seedling stage sealing, 15 days, fresh weight control rate
[2] = tested on: Echinochloa phyllopogon; settings: 120 g a.i./ha, seedling stage sealing, 15 days, fresh weight control rate
Outline: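 Seeds sown on soil in pots kept moist in water-filled boxes, then sprayed with acetone/water compound solution at 120, 60, 30 and 15 g a.i./ha, in triplicate. Effect scored after 15 days in greenhouse as 0–9 levels of fresh-weight growth control, averaged.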

[3] = tested on: Leptochloa chinensis; settings: 120 g a.i./ha, 15 days, fresh weight control rate
From the text: (1) Seedling Stage Sealing Experiment for Water-Seeding:
The activity level criteria for plant damage (i.e., growth control rate) are as follows: • Level 9: completely dead; • Level 8: growth control rate greater than or equal to 90% and less than 100%; • Level 7: growth control rate greater than or equal to 80% and less than 90%; • Level 6: growth control rate greater than or equal to 70% and less than 80%; • Level 5: growth control rate greater than or equal to 50% and less than 70%; • Level 4: growth control rate greater than or equal to 30% and less than 50%; • Level 3: growth control rate greater than or equal to 20% and less than 30%; • Level 2: growth control rate greater than or equal to 10% and less than 20%; • Level 1: growth control rate less than 10%; • Level 0: no effect.
The above growth control rates are fresh weight control rates.
Echinochloa phyllopogon, Digitaria sanguinalis, Huaidao (rice cultivar), etc. were broadcasted on the surface of nutrition bowls filled with soil and fully covered by soil. The foregoing well-prepared nutrition bowls were then placed in a cultivation box with water filled to a suitable height to keep the soil in the nutrition bowls moist. A test compound of the present invention was individually dissolved with acetone, then diluted into solution of a certain concentration using a certain amount of water, and sprayed using a spray tower. The plants were placed on a greenhouse seedbed and cultured for 15 days, and the experimental results were then collected. The compound was applied at 120, 60, 30 and 15 g a.i./ha in triplicate, and the results were averaged.

SMILES	Echinochloa crusgalli activity level (growth control rate) [1]	Echinochloa phyllopogon activity level (growth control rate) [2]	Leptochloa chinensis activity level (growth control rate) [3]
CN1C[C@H](c2cccc(C(F)(F)F)c2)[C@@H](C(=O)Nc2cnn(C(F)F)c2Cl)C1=O [158′]	9	8 (Level 8: growth control rate greater than or equal to 90% and less than 100%)	9
CN1C[C@H](c2cccc(C(F)(F)F)c2)[C@@H](C(=O)Nc2cnn(CCCl)c2Cl)C1=O [160′]	6 (Level 6: growth control rate greater than or equal to 70% and less than 80%)	5 (Level 5: growth control rate greater than or equal to 50% and less than 70%)	9
CN1C[C@H](c2cccc(C(F)(F)F)c2)[C@@H](C(=O)Nc2cnn(CC(F)(F)F)c2Cl)C1=O [161′]	9	8 (Level 8: growth control rate greater than or equal to 90% and less than 100%)	9
CN1C[C@H](c2cccc(C(F)(F)F)c2)[C@@H](C(=O)Nc2cnn(C)c2I)C1=O [186′]	9	7 (Level 7: growth control rate greater than or equal to 80% and less than 90%)	9
CCc1c(NC(=O)[C@H]2C(=O)N(C)C[C@@H]2c2cccc(C(F)(F)F)c2)cnn1C [190′]	9	8 (Level 8: growth control rate greater than or equal to 90% and less than 100%)	9
COCc1c(NC(=O)[C@H]2C(=O)N(C)C[C@@H]2c2cccc(C(F)(F)F)c2)cnn1C [193′]	9	7 (Level 7: growth control rate greater than or equal to 80% and less than 90%)	9
CC(C)c1c(NC(=O)[C@H]2C(=O)N(C)C[C@@H]2c2cccc(C(F)(F)F)c2)cnn1C [194′]	5 (Level 5: growth control rate greater than or equal to 50% and less than 70%)	5 (Level 5: growth control rate greater than or equal to 50% and less than 70%)	6 (Level 6: growth control rate greater than or equal to 70% and less than 80%)
CN1C[C@H](c2cccc(C(F)(F)F)c2)[C@@H](C(=O)Nc2cnn(C)c2C2CC2)C1=O [195′]	9	7 (Level 7: growth control rate greater than or equal to 80% and less than 90%)	9
CN1C[C@H](c2cccc(C(F)(F)F)c2)[C@@H](C(=O)Nc2cnn(C(F)F)c2C2CC2)C1=O [196′]	9	9	9
CC(C)n1ncc(NC(=O)[C@H]2C(=O)N(C)C[C@@H]2c2cccc(C(F)(F)F)c2)c1C1CC1 [197′]	8 (Level 8: growth control rate greater than or equal to 90% and less than 100%)	6 (Level 6: growth control rate greater than or equal to 70% and less than 80%)	9
C=Cc1c(NC(=O)[C@H]2C(=O)N(C)C[C@@H]2c2cccc(C(F)(F)F)c2)cnn1C [203′]	9	9	9
CN1C[C@H](c2cccc(C(F)(F)F)c2)[C@@H](C(=O)Nc2c(O)nn(C)c2F)C1=O [212′]	9	9	9
COc1cccc([C@H]2CN(C)C(=O)[C@@H]2C(=O)Nc2cnn(C)c2C2CC2)c1 [217′]	9	6 (Level 6: growth control rate greater than or equal to 70% and less than 80%)	6 (Level 6: growth control rate greater than or equal to 70% and less than 80%)
CN1C[C@H](c2cccc(OC(F)(F)F)c2)[C@@H](C(=O)Nc2c(O)nn(C)c2F)C1=O [229′]	9	9	9
CN1C[C@H](c2cccc(OC(F)(F)C(F)F)c2)[C@@H](C(=O)Nc2cnn(C)c2Cl)C1=O [231′]	9	6 (Level 6: growth control rate greater than or equal to 70% and less than 80%)	9
CN1C[C@H](c2cc(F)cc(F)c2)[C@@H](C(=O)Nc2c(O)nn(C)c2F)C1=O [263′]	9	8 (Level 8: growth control rate greater than or equal to 90% and less than 100%)	9
Cc1cc(Br)cc([C@H]2CN(C)C(=O)[C@@H]2C(=O)Nc2cnn(C)c2Cl)c1 [265′]	9	9	9
Cc1cc(C)cc([C@H]2CN(C)C(=O)[C@@H]2C(=O)Nc2cnn(C(F)F)c2Cl)c1 [269′]	9	9	9
C=Cc1c(NC(=O)[C@H]2C(=O)N(C)C[C@@H]2c2cc(C)cc(C)c2)cnn1C [275′]	9	9	9
CN1C[C@H](c2cc(F)cc(C(F)(F)F)c2)[C@@H](C(=O)Nc2cnn(C3CC3)c2Cl)C1=O [290′]	9	8 (Level 8: growth control rate greater than or equal to 90% and less than 100%)	9
CC(C)n1ncc(NC(=O)[C@H]2C(=O)N(C)C[C@@H]2c2cc(F)cc(C(F)(F)F)c2)c1Cl [291′]	9	9	9
CN1C[C@H](c2cc(F)cc(C(F)(F)F)c2)[C@@H](C(=O)Nc2cnn(C)c2C2CC2)C1=O [293′]	9	9	9
COc1cc(Cl)cc([C@H]2CN(C)C(=O)[C@@H]2C(=O)Nc2cnn(C)c2Cl)c1 [297′]	9	6 (Level 6: growth control rate greater than or equal to 70% and less than 80%)	9
CCOc1cc(F)cc([C@H]2CN(C)C(=O)[C@@H]2C(=O)Nc2cnn(C)c2Cl)c1 [299′]	9	9	9
COc1cc(C)cc([C@H]2CN(C)C(=O)[C@@H]2C(=O)Nc2cnn(C)c2Cl)c1 [300′]	9	7 (Level 7: growth control rate greater than or equal to 80% and less than 90%)	9
CN1C[C@H](c2ccc(F)c(Cl)c2)[C@@H](C(=O)Nc2cnn(C)c2C2CC2)C1=O [308′]	9	9	9
